According to article PMC7355497 (Pharmaceutics, 2020):
Where a name gives a salt, the structure may show the parent alone.

What was measured:
[1] = cited from earlier work
P-gp = P-gp (Homo sapiens, UniProt P08183); conditions: 15 min, 10 μM
P-gp, sequence (P08183 whole entry): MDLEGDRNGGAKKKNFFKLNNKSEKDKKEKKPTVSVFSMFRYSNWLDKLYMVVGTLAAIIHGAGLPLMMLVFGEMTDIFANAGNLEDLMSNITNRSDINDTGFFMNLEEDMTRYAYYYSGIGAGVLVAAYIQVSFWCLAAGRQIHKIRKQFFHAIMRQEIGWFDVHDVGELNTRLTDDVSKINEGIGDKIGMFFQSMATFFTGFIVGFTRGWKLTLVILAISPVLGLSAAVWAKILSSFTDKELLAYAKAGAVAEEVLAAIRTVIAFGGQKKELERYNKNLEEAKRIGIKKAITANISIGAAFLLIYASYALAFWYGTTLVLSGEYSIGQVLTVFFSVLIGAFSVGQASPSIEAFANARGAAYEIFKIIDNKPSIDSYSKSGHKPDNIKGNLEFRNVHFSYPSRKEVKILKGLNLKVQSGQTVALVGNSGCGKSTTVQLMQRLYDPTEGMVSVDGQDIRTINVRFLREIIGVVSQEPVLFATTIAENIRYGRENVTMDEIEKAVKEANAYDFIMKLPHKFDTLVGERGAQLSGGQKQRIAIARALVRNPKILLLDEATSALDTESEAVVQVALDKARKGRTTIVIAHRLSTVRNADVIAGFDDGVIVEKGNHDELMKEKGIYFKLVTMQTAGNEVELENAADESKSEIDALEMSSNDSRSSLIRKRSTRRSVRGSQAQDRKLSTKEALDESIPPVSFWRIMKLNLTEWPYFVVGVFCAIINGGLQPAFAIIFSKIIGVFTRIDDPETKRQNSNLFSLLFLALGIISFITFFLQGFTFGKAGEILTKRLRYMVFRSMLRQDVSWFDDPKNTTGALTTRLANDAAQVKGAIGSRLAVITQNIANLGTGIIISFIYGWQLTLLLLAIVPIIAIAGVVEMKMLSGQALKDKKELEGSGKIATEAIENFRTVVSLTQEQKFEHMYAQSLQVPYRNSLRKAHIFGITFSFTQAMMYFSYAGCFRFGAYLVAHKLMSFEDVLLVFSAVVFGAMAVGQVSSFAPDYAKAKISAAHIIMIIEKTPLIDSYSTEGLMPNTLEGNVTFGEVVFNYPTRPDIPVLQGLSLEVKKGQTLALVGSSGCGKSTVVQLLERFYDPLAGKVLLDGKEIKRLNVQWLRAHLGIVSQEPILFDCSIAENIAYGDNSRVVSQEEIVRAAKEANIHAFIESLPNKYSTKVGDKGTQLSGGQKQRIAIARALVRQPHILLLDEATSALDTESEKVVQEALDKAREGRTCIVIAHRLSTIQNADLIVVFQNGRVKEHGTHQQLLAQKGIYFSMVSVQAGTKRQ

Fluorescence intensity as percentage of control group (P-gp inhibition) (P-gp)	SMILES	Fraction of dose excreted into feces as the unchanged form [1]	Fraction of dose excreted into urine as the unchanged form [1]
–	CC(C)(C(=O)O)c1ccc(C(O)CCCN2CCC(C(O)(c3ccccc3)c3ccccc3)CC2)cc1 (stereo not drawn) [fexofenadine, Fexofenadine hydrochloride]	80%	11%
147.2% ± 12.4	Cc1cc(O)c2c(c1)C(=O)c1cc(O)cc(O)c1C2=O [emodin]	–	–
